Reference: patent publication US20220040255A1, “CHEMOTHERAPEUTIC REMODELING OF THE GUT MICROBIOME” (THE SCRIPPS RESEARCH INSTITUTE, priority 2018, published 2022)
Where a SMILES comes first, the peptide text is derived from it. [ ]: non-standard residue; d: D form.

Tests used:
bile acids = bile acids in feces and plasma by targeted metabolomics; format: in vivo; conditions: WD-fed LDLr−/− mice, 2-wk treatment
Description: Measurement of secondary bile acids. Feces were obtained between 0900-1100 am from non-fasted animals after a 2-wk treatment period. Bile acids were extracted from samples according to published procedures (Wegner et al., Anal. Bioanal. Chem. 409, 1231-1245, 2017). Briefly, fecal samples were lyophilized and homogenized. Five milligrams of fecal powder were extracted with 250 μl of methanol containing heavy internal standards. Fifty microliters of plasma were extracted with 150 μL of methanol containing heavy internal standards. After vortexing for 10 minutes and centrifuging (16,000×g, 4 C, 10 min), supernatants were transferred to glass vials for injection and analysis by LCMS. Bile acids were analyzed on a Dionex Ultimate 3000 LC system (Thermo) coupled to a TSQ Quantiva mass spectrometer (Thermo) fitted with a Kinetex C18 reversed phase column (2.6 μm, 150×2.1 mm i.d., Phenomenex). The following LC solvents were used: solution A, 0.1% formic acid and 20 mM ammonium acetate in water, solution B, acetonitrile/methanol (3/1, v/v) containing 0.1% formic acid and 20 mM ammonium acetate. The following reversed phase gradient was utilized: at a flow rate of 0.2 mL/min with a gradient consisting of 25-29% B in 1 min, 29-33% B in 14 min, 33-70% B in 15 min, up to 100% B in 1 min, 100% B for 9 min and re-equilibrated to 25% B for 10 min, for a total run time of 50 min. The injection volume for all samples was 10 μL, the column oven temperature was set to 50° C. and the autosampler kept at 4° C. MS analyses were performed using electrospray ionization in positive and negative ion modes, with spray voltages of 3.5 and −3 kV, respectively, ion transfer tube temperature of 325° C., and vaporizer temperature of 275° C. Multiple reaction monitoring (MRM) was performed by using mass transitions between specific parent ions into corresponding fragment ions for each analyte.

[1] = tested on: intestinal absorption of cholesterol; assay: fecal dual-isotope cholesterol absorption assay; format: in vivo, LDLr−/− mice; conditions: 180 μM in drinking water, 2-wk treatment, WD
Description: In vivo cholesterol absorption assay. This experiment was carried out courtesy of Carol S. Ryan, Debra J. Search, Ricardo A. Garcia, and David A. Gordon at Bristol Myers Squibb (Hopewell, N.J., USA). To assess the effects of c[wLwReQeR] (SEQ ID NO:11) on intestinal absorption of cholesterol, male LDLr^−/− mice (Jackson Laboratories) ranging from 8-10 weeks old were acclimated to single housing in standard solid bottom bedded cages for at least one week at BMS facilities. During the acclimation period, the mice were fed a chow diet ad libitum. At the start of the treatment period and for the duration of the study, mice were switched to high-fat, high-cholesterol Western diet (Research Diets D12108C) containing 1.25% cholesterol and 20% fat ad libitum. The peptide was administered in the drinking water ad libitum as a solution with 1% sucrose at 180 μM (˜35 mg/kg/day). […]
Following a 2-wk treatment period, cholesterol absorption was measured using a dual fecal isotope ratio method. […] Plasma (˜20 μl) was added to 5 ml of Opti-fluor Scintillation cocktail (Packard Bioscience #6013199) and counted on ^3H and ^14C channels to evaluate cholesterol efflux. Radioactivity in feces was analyzed as follows: for each animal, feces recovered over the 48 hours was dried overnight at 50° C. and 0.1 gram of dried feces was transferred to a glass tube. […]

[2] = tested on: mouse liver and ileum gene expression; assay: host gene expression (mouse RNA-seq, qPCR); format: in vivo, mice; conditions: peptide-treated WD animals
Description: Mouse RNA-seq sample preparation and sequencing. Mouse tissues were harvested after 2 weeks of treatment, stored in RNAlater, and snap-frozen. 20-30 mg of mouse tissue was used for RNA extraction with RNeasy Mini Kit (Qiagen) following the manufacturer's instructions. Ribosomal RNA was removed from total RNA with Ribo-Zero Gold rRNA removal kit (Illumina). Strand-specific RNA-seq libraries were constructed as described previously (Hainer et al., Genes Dev. 29, 362-378, 2015). Libraries with different barcodes were pooled and single-end sequencing (75 bp) was performed on an Illumina NextSeq at the Scripps Research Institute next generation sequencing core.
Mouse RNA sequencing data analysis. After ribosomal RNA sequences were removed, the RNA transcripts were quantified using RSEM. […] Enrichment of Gene Ontology terms and categories was performed with DAVID 6.8.
Quantitative real-time PCR. To validate selected gene expression results, qPCR reactions were carried out. Mouse livers were harvested two weeks after peptide treatment and total RNA was extracted using RNeasy Mini (Qiagen) following manufacturer's instructions. […]

CC(C)C[C@@H]1NC(=O)[C@@H](Cc2c[nH]c3ccccc23)NC(=O)[C@H](CCCNC(=N)N)NC(=O)[C@@H](CCC(=O)O)NC(=O)[C@H](CCC(N)=O)NC(=O)[C@@H](CCC(=O)O)NC(=O)[C@H](CCCNC(=N)N)NC(=O)[C@@H](Cc2c[nH]c3ccccc23)NC1=O [c[wLwReQeR]] (cyclo([dW]L[dW]R[dE]Q[dE]R))
CA level (bile acids; feces): 440 ± 490 pmol/mg feces
DCA level (bile acids; feces): 4900 ± 2400 pmol/mg feces
HCA level (bile acids; feces): 1.6 ± 1.1 pmol/mg feces
LCA level (bile acids; feces): 400 ± 170 pmol/mg feces
T-CA level (bile acids; feces): 8.3 ± 3.3 pmol/mg feces
T-DCA level (bile acids; feces): 2.6 ± 1.2 pmol/mg feces
T-HCA level (bile acids; feces): 0.097 ± 0.03 pmol/mg feces
T-α-MCA level (bile acids; feces): 17 ± 8.7 pmol/mg feces
T-β-MCA level (bile acids; feces): 20 ± 11 pmol/mg feces
T-ω-MCA level (bile acids; feces): 3 ± 1.4 pmol/mg feces
UDCA level (bile acids; feces): 43 ± 16 pmol/mg feces
α-MCA level (bile acids; feces): 21 ± 8.9 pmol/mg feces
β-MCA level (bile acids; feces): 65 ± 12 pmol/mg feces
ω-MCA level (bile acids; feces): 170 ± 100 pmol/mg feces
CA level (bile acids; plasma): 6300 ± 8300 pmol/mL plasma
DCA level (bile acids; plasma): 2100 ± 2100 pmol/mL plasma
HCA level (bile acids; plasma): 1.0 ± 0.84 pmol/mL plasma
LCA level (bile acids; plasma): 100 ± 48 pmol/mL plasma
T-CA level (bile acids; plasma): 16000 ± 31000 pmol/mL plasma
T-DCA level (bile acids; plasma): 830 ± 1100 pmol/mL plasma
T-HCA level (bile acids; plasma): 62 ± 110 pmol/mL plasma
T-α-MCA level (bile acids; plasma): 1900 ± 3900 pmol/mL plasma
T-β-MCA level (bile acids; plasma): 9800 ± 22000 pmol/mL plasma
T-ω-MCA level (bile acids; plasma): 2400 ± 4900 pmol/mL plasma
UDCA level (bile acids; plasma): 120 ± 92 pmol/mL plasma
α-MCA level (bile acids; plasma): 10 ± 5.8 pmol/mL plasma
β-MCA level (bile acids; plasma): 76 ± 75 pmol/mL plasma
ω-MCA level (bile acids; plasma): 33 ± 11 pmol/mL plasma
absorption of dietary cholesterol [1]: did not reduce
expression of cholesterol 7 alpha-hydroxylase (Cyp7a1) [2]: significantly increased
